Values quoted from earlier work, collected in patent publication US20040220281A1, “Treatment of hormone-refractory prostate cancer” (priority 2003, published 2004).
Like-named read-outs stand apart in the source and are kept apart here.

Columns and labels:
[1] = in vivo
[2] = in vitro
[3] = biological target: CYP 3A4 (Homo sapiens, UniProt P08684)
[4] = biological target: p-glycoprotein (P-gp) pump (Homo sapiens, UniProt P08183)
Chain of p-glycoprotein (P-gp) pump (P08183 whole entry): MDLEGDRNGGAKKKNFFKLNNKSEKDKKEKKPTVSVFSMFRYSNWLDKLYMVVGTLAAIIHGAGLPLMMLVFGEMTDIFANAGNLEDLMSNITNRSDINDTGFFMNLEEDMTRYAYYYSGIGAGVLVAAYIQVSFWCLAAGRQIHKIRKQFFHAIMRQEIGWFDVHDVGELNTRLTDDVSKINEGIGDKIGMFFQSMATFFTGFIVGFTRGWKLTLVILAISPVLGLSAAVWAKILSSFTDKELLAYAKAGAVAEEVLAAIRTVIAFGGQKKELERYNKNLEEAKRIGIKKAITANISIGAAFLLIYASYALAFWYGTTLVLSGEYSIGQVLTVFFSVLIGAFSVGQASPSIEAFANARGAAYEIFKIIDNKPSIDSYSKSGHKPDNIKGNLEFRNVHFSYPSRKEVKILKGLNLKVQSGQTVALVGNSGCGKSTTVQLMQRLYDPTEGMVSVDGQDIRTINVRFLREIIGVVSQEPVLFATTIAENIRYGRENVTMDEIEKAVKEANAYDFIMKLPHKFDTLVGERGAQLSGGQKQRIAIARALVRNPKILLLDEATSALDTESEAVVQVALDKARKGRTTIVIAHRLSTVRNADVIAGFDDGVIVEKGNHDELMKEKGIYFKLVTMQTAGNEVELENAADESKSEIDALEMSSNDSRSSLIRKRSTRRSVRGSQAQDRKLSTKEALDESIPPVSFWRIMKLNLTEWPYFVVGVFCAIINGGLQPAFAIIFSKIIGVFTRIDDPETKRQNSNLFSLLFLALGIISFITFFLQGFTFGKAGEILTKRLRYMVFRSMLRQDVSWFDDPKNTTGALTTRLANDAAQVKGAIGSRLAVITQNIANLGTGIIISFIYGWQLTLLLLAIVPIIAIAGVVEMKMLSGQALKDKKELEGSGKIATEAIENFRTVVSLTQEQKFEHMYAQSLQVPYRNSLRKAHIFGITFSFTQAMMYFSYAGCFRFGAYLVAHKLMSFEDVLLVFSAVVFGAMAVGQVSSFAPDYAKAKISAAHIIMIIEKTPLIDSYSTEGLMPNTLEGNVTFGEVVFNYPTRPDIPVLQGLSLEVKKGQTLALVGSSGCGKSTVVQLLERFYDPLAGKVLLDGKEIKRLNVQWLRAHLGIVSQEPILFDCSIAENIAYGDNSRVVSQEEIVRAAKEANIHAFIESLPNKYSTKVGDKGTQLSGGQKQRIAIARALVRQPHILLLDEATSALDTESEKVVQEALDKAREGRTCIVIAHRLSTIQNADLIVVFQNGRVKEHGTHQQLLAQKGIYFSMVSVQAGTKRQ

Chain of CYP 3A4 (P08684 whole entry, species assumed): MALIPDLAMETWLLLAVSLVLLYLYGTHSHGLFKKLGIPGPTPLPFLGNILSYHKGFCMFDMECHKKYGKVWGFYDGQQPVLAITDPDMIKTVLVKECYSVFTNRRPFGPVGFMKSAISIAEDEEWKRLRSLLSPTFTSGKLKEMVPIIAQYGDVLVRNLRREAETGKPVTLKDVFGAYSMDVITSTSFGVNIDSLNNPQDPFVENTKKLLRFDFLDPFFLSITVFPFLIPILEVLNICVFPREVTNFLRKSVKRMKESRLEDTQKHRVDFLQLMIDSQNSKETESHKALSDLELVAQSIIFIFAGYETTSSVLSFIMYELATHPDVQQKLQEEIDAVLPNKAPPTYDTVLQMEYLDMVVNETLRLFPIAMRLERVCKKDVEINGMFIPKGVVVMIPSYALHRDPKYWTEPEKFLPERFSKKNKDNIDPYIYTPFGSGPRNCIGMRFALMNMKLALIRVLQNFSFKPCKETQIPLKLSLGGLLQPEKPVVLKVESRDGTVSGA

Q: With CCN(CC)CCOc1ccc(Cc2ccccc2)cc1 [DPPE, N,N-diethyl-2-[4-(phenylmethyl)-phenoxy]ethanamine] as the molecule, how does the “potentiation of cytotoxicity of a variety of antineoplastic drugs” value [1] read?
A: The value was “potentiates the cytotoxicity”.

Q: What about the “potentiation of cytotoxicity of a variety of antineoplastic drugs” value [2] of the same molecule?
A: The value was “potentiates the cytotoxicity”.

Q: And the “substrate for CYP 3A4” value [3]?
A: Its value is “potent substrate”.

Q: And the “inhibition of the p-glycoprotein (P-gp) pump” value [4]?
A: Its value is “inhibits”.
